Measured values as given in US8883841B2, “Oncogenic ras-specific cytotoxic compound and methods of use thereof” (The Board of Regents of the University of Texas System, priority 2005, dated 2014).

How the values were obtained:
[1] = system: panel of 60 cancer cell lines; test: NCI Developmental Therapeutics Program in-vitro testing, panel of 60 cancer cell lines (whole panel); assay type: cell-based; conditions: leukemia, non small lung, colon, melanoma, ovarian, renal, breast
H460 tumors = test: In vivo antitumor activity, subcutaneous H460 tumors in nude mice
Experimental: The inventors have investigated the in vivo antitumor activity of Oncrasin compounds, such as Oncrasin-1 and Oncrasin-27, both are available at relatively larger scale. Subcutaneous tumors were established in 4- to 6-week-old female nude mice (Charles River Laboratories Inc., Wilmington, Mass.) by the inoculation of 1.5×10^6 H460 cells into the dorsal flank of each mouse. After the tumors grew to 5 mm in diameter, mice were treated with intraperitoneal injections of Oncrasin-1 (for 10 days) or Oncrasin-27 (for 3 days, because of limited availability of the compound) at a dose of 100 mg/kg/injection daily (the agents were dissolved in 0.5 mL of solvent containing 10% DMSO, 10% Cremophor EL, and 10% ethanol), or they were given intraperitoneal injections of solvent alone. The tumor volumes were calculated using the formula a×b^2×0.5, where a and b represent the larger and smaller diameters, respectively (Gu et al., 2000; Terashi et al., 2005). Mice were killed when the tumors grew to 1.5 cm in diameter. To evaluate the toxicity of treatment, blood samples were collected from the tail vein before treatment and 2 days after the last treatment, and serum alanine transaminase, aspartate transaminase, and creatinine levels were determined as described elsewhere (Gu et al., 2000; Terashi et al., 2005). Hematopoietic toxicity was monitored by counting red blood cells, white blood cells, and platelets (Gu et al., 2002; Terashi et al., 2005). The lung, heart, liver, intestine, spleen, and kidney were harvested after the mice were killed to test the toxic effects of both compounds on these organs. The histopathologic analysis was performed in the histology laboratory of the Department of Veterinary Medicine and Surgery at M. D. Anderson Cancer Center. […] The mean survivals for mice treated with solvent, Oncrasin-1, and Oncrasin-27 were 24, 32, and 34 days, respectively.

T29Kt1 cells = conditions: Table 1; value is the negative log10 of mol/L
SF-268 = test: NCI in-vitro testing, SF-268 (CNS Cancer)
LOX IMVI = test: NCI in-vitro testing, LOX IMVI (Melanoma)
HL-60(TB) = test: NCI in-vitro testing, HL-60(TB) (Leukemia)
SK-MEL-28 = test: NCI in-vitro testing, SK-MEL-28 (Melanoma)
UO-31 = test: NCI in-vitro testing, UO-31 (Renal Cancer)
HCT-15 = test: NCI in-vitro testing, HCT-15 (Colon Cancer)
COLO 205 = test: NCI in-vitro testing, COLO 205 (Colon Cancer)
[2] = In vivo toxicity assay in tumor-bearing nude mice
MDA-MB-231/ATCC = test: NCI in-vitro testing, MDA-MB-231/ATCC (Breast Cancer)
NCI-H522 = test: NCI in-vitro testing, NCI-H522 (Non-Small Cell Lung Cancer)

O=Cc1cn(Cc2cccc(Cl)c2)c2ccccc12 [Oncrasin K027, 1-(3-chlorobenzyl)-1H-indole-3-carbaldehyde]
anticancer spectrum in NCI panel [1]: active in a number of cancer cell lines | suppression of growth of tumor volume in comparison with solvent (H460 tumors; 100 mg/kg/injection daily i.p., Oncrasin-1 10 days, Oncrasin-27 3 days): 76.3% | mean survival (H460 tumors; 100 mg/kg/injection daily i.p., solvent 24 days): 34 days | mean tumor volume vs solvent-treated mice (H460 tumors; p<0.05, 5 mice per group): differed significantly | IC50 in T29k cells (T29Kt1 cells): 6.43 | GI50 (SF-268; Homo sapiens, SF-268): 1.24 µM | CC50 (SF-268; Homo sapiens, SF-268, read-out: LC50): > 100 µM | TGI (SF-268; SF-268): 4.58E−5 Molar | Percent Growth (SF-268; SF-268, Log10 Concentration −4.0 Molar): −30% | Percent Growth (SF-268; SF-268, Log10 Concentration −5.0 Molar): 58% | Percent Growth (SF-268; SF-268, Log10 Concentration −6.0 Molar): 94% | Percent Growth (SF-268; SF-268, Log10 Concentration −7.0 Molar): 93% | Percent Growth (SF-268; SF-268, Log10 Concentration −8.0 Molar): 106% | TGI (LOX IMVI): 1.68E−5 Molar | GI50 (LOX IMVI; Homo sapiens): 0.0448 µM | CC50 (LOX IMVI; Homo sapiens, read-out: LC50): 47.2 µM | Percent Growth (LOX IMVI; Log10 Concentration −4.0 Molar): −86% | Percent Growth (LOX IMVI; Log10 Concentration −5.0 Molar): 25% | Percent Growth (LOX IMVI; Log10 Concentration −6.0 Molar): 96% | Percent Growth (LOX IMVI; Log10 Concentration −7.0 Molar): 95% | Percent Growth (LOX IMVI; Log10 Concentration −8.0 Molar): 102% | TGI (HL-60(TB); HL-60(TB)): 1.28E−5 Molar | Percent Growth (HL-60(TB); HL-60(TB), Log10 Concentration −4.0 Molar): −78% | Percent Growth (HL-60(TB); HL-60(TB), Log10 Concentration −5.0 Molar): 9% | Percent Growth (HL-60(TB); HL-60(TB), Log10 Concentration −6.0 Molar): 89% | Percent Growth (HL-60(TB); HL-60(TB), Log10 Concentration −7.0 Molar): 85% | Percent Growth (HL-60(TB); HL-60(TB), Log10 Concentration −8.0 Molar): 95% | GI50 (HL-60(TB); Homo sapiens, HL-60): 2.1 µM | CC50 (HL-60(TB); Homo sapiens, HL-60, read-out: LC50): 48.1 µM | GI50 (SK-MEL-28; Homo sapiens, SK-MEL-28): 18 µM | CC50 (SK-MEL-28; Homo sapiens, SK-MEL-28, read-out: LC50): > 100 µM | TGI (SK-MEL-28; SK-MEL-28): 4.44E−6 Molar | Percent Growth (SK-MEL-28; SK-MEL-28, Log10 Concentration −4.0 Molar): −45% | Percent Growth (SK-MEL-28; SK-MEL-28, Log10 Concentration −5.0 Molar): 82% | Percent Growth (SK-MEL-28; SK-MEL-28, Log10 Concentration −6.0 Molar): 93% | Percent Growth (SK-MEL-28; SK-MEL-28, Log10 Concentration −7.0 Molar): 93% | Percent Growth (SK-MEL-28; SK-MEL-28, Log10 Concentration −8.0 Molar): 83% | GI50 (UO-31; Homo sapiens, UO-31): 1.58 µM | CC50 (UO-31; Homo sapiens, UO-31, read-out: LC50): > 100 µM | TGI (UO-31; UO-31): 1.55E−6 Molar | Percent Growth (UO-31; UO-31, Log10 Concentration −4.0 Molar): −42% | Percent Growth (UO-31; UO-31, Log10 Concentration −5.0 Molar): 10% | Percent Growth (UO-31; UO-31, Log10 Concentration −6.0 Molar): 50% | Percent Growth (UO-31; UO-31, Log10 Concentration −7.0 Molar): 80% | Percent Growth (UO-31; UO-31, Log10 Concentration −8.0 Molar): 90% | TGI (HCT-15; HCT-15): 2.58E−6 Molar | Percent Growth (HCT-15; HCT-15, Log10 Concentration −4.0 Molar): −31% | Percent Growth (HCT-15; HCT-15, Log10 Concentration −5.0 Molar): 21% | Percent Growth (HCT-15; HCT-15, Log10 Concentration −6.0 Molar): 69% | Percent Growth (HCT-15; HCT-15, Log10 Concentration −7.0 Molar): 90% | Percent Growth (HCT-15; HCT-15, Log10 Concentration −8.0 Molar): 99% | GI50 (HCT-15; Homo sapiens, HCT-15): 0.0252 µM | CC50 (HCT-15; Homo sapiens, HCT-15, read-out: LC50): > 100 µM | TGI (COLO 205; COLO 205): 1.58E−5 Molar | Percent Growth (COLO 205; COLO 205, Log10 Concentration −4.0 Molar): −72% | Percent Growth (COLO 205; COLO 205, Log10 Concentration −5.0 Molar): 18% | Percent Growth (COLO 205; COLO 205, Log10 Concentration −6.0 Molar): 51% | Percent Growth (COLO 205; COLO 205, Log10 Concentration −7.0 Molar): 93% | Percent Growth (COLO 205; COLO 205, Log10 Concentration −8.0 Molar): 88% | GI50 (COLO 205; Homo sapiens, COLO 205): 1.05 µM | CC50 (COLO 205; Homo sapiens, COLO 205, read-out: LC50): 5.69 µM | serum ALT, AST, and creatinine levels ([2]; 2 days after the last treatment): within the normal range | histopathologic examination of organs ([2]; lung, heart, stomach, small intestine, liver, spleen, pancreas, kidney): no significant lesions | blood cell counts ([2]; red blood cells, white blood cells, platelets): all in the normal ranges | body weights ([2]; vs solvent): No difference | GI50 (MDA-MB-231/ATCC; Homo sapiens, MDA-MB-231): 11 µM | CC50 (MDA-MB-231/ATCC; Homo sapiens, MDA-MB-231, read-out: LC50): > 100 µM | TGI (MDA-MB-231/ATCC; MDA-MB-231/ATCC): 4.23E−5 Molar | Percent Growth (MDA-MB-231/ATCC; MDA-MB-231/ATCC, Log10 Concentration −4.0 Molar): −32% | Percent Growth (MDA-MB-231/ATCC; MDA-MB-231/ATCC, Log10 Concentration −5.0 Molar): 55% | Percent Growth (MDA-MB-231/ATCC; MDA-MB-231/ATCC, Log10 Concentration −6.0 Molar): 109% | Percent Growth (MDA-MB-231/ATCC; MDA-MB-231/ATCC, Log10 Concentration −7.0 Molar): 120% | Percent Growth (MDA-MB-231/ATCC; MDA-MB-231/ATCC, Log10 Concentration −8.0 Molar): 105% | TGI (NCI-H522): 1.24E−5 Molar | GI50 (NCI-H522; Homo sapiens, NCI-H522): 2.41 µM | CC50 (NCI-H522; Homo sapiens, NCI-H522, read-out: LC50): 51 µM | Percent Growth (NCI-H522; Log10 Concentration −4.0 Molar): −74% | Percent Growth (NCI-H522; Log10 Concentration −5.0 Molar): 7% | Percent Growth (NCI-H522; Log10 Concentration −6.0 Molar): 76% | Percent Growth (NCI-H522; Log10 Concentration −7.0 Molar): 82% | Percent Growth (NCI-H522; Log10 Concentration −8.0 Molar): 91%
